Source: the supplement of paper PMC10307832

Legend:
Assay in all cases: relative viability (nuclei count vs DMSO), 5 days (fraction); higher = more cells survive
CX-5461 + Trametinib = compound: Cc1cnc(CNC(=O)c2c(=O)c3ccc(N4CCCN(C)CC4)nc3n3c2sc2ccccc23)cn1 [CX-5461] + CC(=O)Nc1cccc(-n2c(=O)n(C3CC3)c(=O)c3c(Nc4ccc(I)cc4F)n(C)c(=O)c(C)c32)c1 [Trametinib] (partner 0.02 µM)
Procedure, shortened: (§1)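 Relative viability was taken as the ratio of nuclei in treated wells to nuclei in vehicle wells. Lung cancer cell lines in 1536-well plates received compounds by pin tool one day after seeding, either one drug alone or a fixed anchor-drug dose plus five library-drug doses (not always all listed) in √10 steps. Nuclei were counted on 4× images after 5 days of treatment, and values are medians of duplicate plates.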

CX-5461 + Pictilisib = compound: Cc1cnc(CNC(=O)c2c(=O)c3ccc(N4CCCN(C)CC4)nc3n3c2sc2ccccc23)cn1 [CX-5461] + CS(=O)(=O)N1CCN(Cc2cc3nc(-c4cccc5[nH]ncc45)nc(N4CCOCC4)c3s2)CC1 [Pictilisib] (partner 1 µM)
Procedure, shortened: as §1

CX-5461 + AZD7762 = compound: Cc1cnc(CNC(=O)c2c(=O)c3ccc(N4CCCN(C)CC4)nc3n3c2sc2ccccc23)cn1 [CX-5461] + NC(=O)Nc1cc(-c2cccc(F)c2)sc1C(=O)N[C@H]1CCCNC1 [AZD7762] (partner 0.2 µM)
Procedure, shortened: as §1

IMD-0354 + Phenformin = compound: O=C(Nc1cc(C(F)(F)F)cc(C(F)(F)F)c1)c1cc(Cl)ccc1O [IMD-0354] + N=C(N)NC(=N)NCCc1ccccc1 [Phenformin] (partner 250 µM)
Procedure, shortened: as §1

| Cell Line | relative viability (CX-5461 + Trametinib; first compound 0.01 µM) | relative viability (CX-5461 + Trametinib; first compound 0.03162 µM) | relative viability (CX-5461 + Trametinib; first compound 0.1 µM) | relative viability (CX-5461 + Trametinib; first compound 0.3162 µM) | relative viability (CX-5461 + Trametinib; first compound 1 µM) | relative viability (CX-5461 + Pictilisib; first compound 0.01 µM) | relative viability (CX-5461 + Pictilisib; first compound 0.03162 µM) | relative viability (CX-5461 + Pictilisib; first compound 0.1 µM) | relative viability (CX-5461 + Pictilisib; first compound 0.3162 µM) | relative viability (CX-5461 + Pictilisib; first compound 1 µM) | relative viability (CX-5461 + AZD7762; first compound 0.01 µM) | relative viability (CX-5461 + AZD7762; first compound 0.03162 µM) | relative viability (CX-5461 + AZD7762; first compound 0.1 µM) | relative viability (CX-5461 + AZD7762; first compound 0.3162 µM) | relative viability (CX-5461 + AZD7762; first compound 1 µM) | relative viability (IMD-0354 + Phenformin; first compound 0.04 µM) | relative viability (IMD-0354 + Phenformin; first compound 0.1265 µM) | relative viability (IMD-0354 + Phenformin; first compound 0.4 µM) | relative viability (IMD-0354 + Phenformin; first compound 1.265 µM) | relative viability (IMD-0354 + Phenformin; first compound 4 µM) |
| --- | --- | --- | --- | --- | --- | --- | --- | --- | --- | --- | --- | --- | --- | --- | --- | --- | --- | --- | --- | --- |
| LC-2-ad | 0.901 | 0.96 | 0.931 | 0.912 | 0.847 | 0.431 | 0.51 | 0.516 | 0.502 | 0.334 | 0.834 | 0.919 | 0.836 | 0.848 | 0.742 | 0.612 | 0.548 | 0.232 | 0.267 | 0.17 |
| NCI-H1915 | 0.285 | 0.326 | 0.327 | 0.315 | 0.307 | 0.966 | 1.18 | 1.1 | 0.326 | 0.997 | 0.75 | 0.74 | 0.643 | 0.673 | 0.608 | 0.37 | 0.31 | 0.26 | 0.182 | 0.156 |
| NCI-H1944 | 0.47 | 0.406 | 0.419 | 0.314 | 0.448 | 0.335 | 0.371 | 0.332 | – | 0.353 | 0.444 | 0.512 | 0.358 | 0.269 | 0.195 | 0.232 | 0.197 | 0.15 | 0.116 | 0.148 |
| RERF-LC-KJ | 0.853 | 0.908 | 0.694 | 0.89 | 0.644 | 0.466 | 0.601 | 0.565 | 0.538 | 0.5 | 1 | 0.897 | 0.954 | 0.807 | 0.901 | 0.478 | 0.423 | 0.337 | 0.289 | 0.207 |
| LXF-289 | 0.757 | 0.647 | 0.751 | – | 0.677 | 0.789 | 0.922 | 0.805 | 0.72 | 0.435 | 1.16 | 1.12 | 1.08 | – | 0.873 | 0.548 | 0.504 | 0.329 | 0.124 | 0.0658 |
| PC-14 | 0.718 | 0.821 | 0.391 | 0.76 | 0.151 | 0.788 | 1.05 | 0.972 | 0.583 | 0.636 | 0.393 | 0.455 | 0.351 | 0.407 | 0.227 | 0.817 | 0.59 | 0.221 | 0.107 | 0.112 |
| NCI-H650 | 1.06 | 0.938 | 0.991 | 1.05 | 0.911 | 0.858 | 1.05 | 0.889 | 0.664 | 0.731 | 1.03 | 1.01 | 0.727 | 1.05 | 0.623 | 0.448 | 0.451 | 0.371 | 0.234 | 0.2 |
| NCI-H1666 | 0.895 | 0.891 | 0.719 | 0.821 | 0.65 | 0.375 | 0.533 | – | 0.337 | 0.349 | 0.796 | 0.912 | 0.728 | 0.856 | 0.69 | 0.592 | 0.558 | 0.476 | 0.384 | 0.254 |
| NCI-H2085 | 0.516 | 0.564 | 0.464 | 0.527 | 0.615 | 0.551 | 0.408 | 0.435 | 0.514 | 0.374 | 1.05 | 1.03 | 0.918 | 1.04 | 0.719 | 0.641 | 0.69 | 0.515 | 0.322 | 0.232 |
| NCI-H1734 | 0.716 | 0.781 | 0.788 | 0.599 | 0.711 | 0.516 | 0.519 | 0.503 | 0.317 | 0.341 | 0.583 | 0.602 | 0.317 | 0.327 | 0.286 | 0.393 | 0.284 | 0.257 | 0.165 | 0.129 |
| NCI-H2126 | 0.591 | 0.628 | 0.591 | 0.557 | 0.526 | 0.486 | 0.521 | 0.478 | 0.518 | 0.487 | 1.1 | 1.05 | 0.981 | 1.05 | 0.903 | 0.561 | 0.47 | 0.424 | 0.309 | 0.222 |
| EMC-BAC-2 | 0.91 | 0.888 | 0.629 | 0.45 | 0.429 | 0.555 | 0.565 | 0.562 | 0.414 | 0.353 | 1.06 | 1.04 | 0.864 | 0.919 | 0.566 | 0.52 | 0.441 | 0.24 | 0.155 | 0.218 |
| NCI-H1993 | 0.525 | 0.448 | 0.476 | 0.431 | 0.544 | 0.778 | 0.83 | 0.891 | 0.84 | 0.819 | 0.754 | 0.893 | 0.716 | 0.81 | 0.78 | 0.48 | 0.495 | 0.438 | 0.465 | 0.524 |
| NCI-H647 | 0.589 | 0.331 | 0.494 | 0.451 | 0.218 | 0.429 | 0.459 | 0.426 | 0.136 | 0.28 | 0.617 | 0.384 | 0.489 | 0.439 | 0.0774 | 0.784 | 0.376 | 0.283 | 0.129 | 0.0531 |
| NCI-H1792 | 0.542 | 0.434 | 0.407 | 0.401 | 0.52 | 0.294 | 0.296 | 0.277 | 0.276 | 0.281 | 0.838 | 0.677 | 0.5 | 0.667 | 0.0872 | 0.175 | 0.225 | 0.226 | 0.167 | 0.139 |
